Data: paper PMC2694832, “Pharmacokinetics, tissue distribution and mass balance of radiolabeled dihydroartemisinin in male rats” (Malaria Journal, 2009)

Experiment: Pharmacokinetic study of [^14C] DHA and unchanged DHA, single i.v. dose
Format: in vivo, rats
Conditions: for fourth peak concentration of radioactivity: 6 hours; for first peak concentration of radioactivity: at one minute
Protocol: Traditional PK studies involve intermittent blood sampling and subsequent determination of drug concentrations in whole blood and plasma. The Culex automated blood sampler provides a way for blood withdrawal at preprogrammed intervals, which is more accurate and less labor intensive. Six rats in the PK group were implanted with a jugular vein catheter under an isofluorane anesthaesia. After the surgery, rats were allowed to recover for 96 hours with free access to food and water. The rats were dosed single i.v. at 3 mg/ml/kg with [^14C] DHA (20 μCi/kg), which was prepared as a 25% cremophore/0.9% saline solution, through the tail vein. […] PK evaluation of [^14C] DHA in plasma and whole blood, as well as unchanged DHA in plasma was conducted in individual rats.
Total radioactivity in the collected tissue samples were quantified in duplicate. Weighed tissue aliquots (~0.2 g) were digested overnight in 2 ml of Solvable® tissue solubilizer (Perkin-Elmer Life and Analytical Sciences, Boston, MA) at 50°C. Coloured samples were decolourized by adding a maximum of 0.2 ml of 30% H2O2 for 30–60 minutes. Scintillation cocktail (Hyonic Fluor; Perkin-Elmer Boston. Massachusetts, USA) was then added and radioactivity determined in a Perkin-Elmer Tri-Carb 3100 TR scintillation spectrophotometer (Packard Instrument Co., Downers Grove, Illinois, USA). Faeces and intestinal contents were thoroughly homogenized before taking aliquots. Plasma was also analysed using the HPLC-ECD system to measure the concentration of unchanged DHA, as described by Li et al.
The analysis of cold DHA in plasma was performed according to a previously described HPLC method with the following modifications: for simultaneous determination of artemisinin and DHA (artemisinin as an internal standard), the Agilent Eclipse XDB-C18 column 5 μm (4.6 × 150 mm) was used with an isocratic mobile phase consisting of 40% acetonitrile: 60% ESA Acid Metabolite A (70–4835) in the reductive mode (-400 mV) for the quantification of DHA. Validation and reproducibility were evaluated and a lower limit of quantitation (LLQ) of 2.31 ng/ml for DHA was determined. The inter- and intra-day coefficient of variation for accuracy and precision were all within ± 10%.
For pharmacokinetics, the concentration-time data of [^14C] DHA in plasma and whole blood collected during the 192 hour treatment period was fitted to a three-compartment open model using a nonlinear, extended least-square fitting procedure (WinNonlin 5.2, Pharsight Corporation, Cary, NC) using weighted (1/concentration) nonlinear regression. The area under the curve (AUC) was determined by the linear trapezoidal rule with extrapolation to infinity based on the concentration of the last time point divided by the terminal rate constant. Extrapolations to time zero were done using zero concentration for intravenous dosing and using C0 values determined from the three-compartment model equation at time zero by i.v. route. Mean clearance rate (CL) was determined by dividing the dose by the AUCinf for i.v. injection. Mean residence time (MRT) was determined by dividing the area under the first moment curve (AUMC) by the AUC. The volume of distribution at steady state (Vss) was calculated as the product of CL and MRT. The concentration-time data of unchanged DHA was fitted to a two-compartment open model. Statistical analysis was conducted with Microsoft Excel using a Student's t-test for dependent samples to compare means of paired and unpaired samples between two groups.

[1] = blood radioactivity, three-compartment, rats single i.v. 3 mg/20 μCi/kg
[2] = blood radioactivity, rats single i.v. 3 mg/20 μCi/kg
[3] = plasma radioactivity, three-compartment, rats single i.v. 3 mg/20 μCi/kg
[4] = plasma radioactivity, rats single i.v. 3 mg/20 μCi/kg
[5] = plasma radioactivity, rats single i.v. 3 mg/20 μCi/kg, listed as 14C-Dihydroartemisinin
[6] = plasma, rats i.v. 3 mg/20 μCi/kg

Compound: C[C@@H]1CC[C@H]2[C@@H]([14CH3])C(O)O[C@@H]3O[C@@]4(C)CC[C@@H]1[C@]32OO4 (stereo partly drawn) [[^14C] DHA, [16-^14C] DHA]
- AUCinf. [1]: 52690 ± 4971 ng·h/mL
- CL [1]: 0.7263 ± 0.5117 mL/min/kg
- Cmax [1]: 3105 ± 430 ng/mL
- MRT [1]: 148.57 ± 90.24 h
- Vss [1]: 10.792 ± 3.771 L/kg
- t1/2 – alpha [1]: 0.18 ± 0.02 h
- t1/2 – beta [1]: 19.68 ± 3.88 h
- t1/2 – gamma (terminal) [1]: 122.13 ± 8.73 h
- Cmax at first peak [2]: 3105 ± 430 ng/mL
- Cmax at fourth peak [2]: 833 ± 99 ng/mL
- Cmax at second peak [2]: 1557 ± 955 ng/mL
- Cmax at third peak [2]: 978 ± 164 ng/mL
- Tmax [2]: 1.2 min
- time of first peak [2]: 0.02 h
- time of fourth peak [2]: 6 h
- time of second peak [2]: 0.94 h
- time of third peak [2]: 2.00 h
- time of fourth peak (blood radioactivity, rats single i.v. 3 mg/20 μCi/kg, listed as 14C-Dihydroartemisinin): 6.00 h
- fourth peak concentration of radioactivity (blood, rats i.v. 3 mg/20 μCi/kg): 833 ng equivalents/ml
- third peak concentration of radioactivity (blood, at two hours, rats i.v. 3 mg/20 μCi/kg): 978 ng equivalents/ml
- AUCinf. [3]: 21014 ± 2718 ng·h/mL
- CL [3]: 2.4105 ± 0.3028 mL/min/kg
- MRT [3]: 57.00 ± 2.84 h
- Vss [3]: 8.216 ± 0.828 L/kg
- t1/2 – alpha [3]: 0.21 ± 0.05 h
- t1/2 – gamma (terminal) [3]: 75.57 ± 7.34 h
- time of second peak (plasma radioactivity, rats i.v. 3 mg/20 μCi/kg): 0.183 h
- Cmax at fourth peak [4]: 584 ± 65.5 ng/mL
- Cmax at second peak [4]: 2373 ± 195 ng/mL
- Cmax at third peak [4]: 863 ± 537 ng/mL
- Tmax [4]: 1.2 min
- time of first peak [4]: 0.02 h
- time of fourth peak [4]: 6 h
- time of second peak [4]: 0.19 h
- time of third peak [4]: 1.7 h
- time of fourth peak [5]: 6.00 h
- time of third peak [5]: 1.70 h
- fourth peak concentration of radioactivity [6]: 584 ng equivalents/ml
- first peak concentration of radioactivity [6]: 3,446 ng equivalents/g
- second peak concentration of radioactivity [6]: 2,373 ng equivalents/ml
- third peak concentration of radioactivity [6]: 863 ng equivalents/ml
- total radioactivity in the plasma fraction relative to blood total (rats i.v.): less than 25%
- duration of total radioactivity (long-lasting metabolites) (rats, plasma, urine and faeces, single i.v. 3 mg/20 μCi/kg): > 192 h
- time of second peak (whole blood radioactivity, rats i.v. 3 mg/20 μCi/kg): 0.933 h
- first peak concentration of radioactivity (whole blood, rats i.v. 3 mg/20 μCi/kg): 3,105 ng equivalents/g
